Results taken from patent US20070225253A1, “Use of a trioxopyrimidine for the treatment and prevention of bronchial inflammatory diseases” (priority 2004, published 2007).

Legend:
[1] = tested on: allergen-induced airway inflammation and bronchial hyperresponsiveness; test: Mouse model of asthma (OVA), inhalation, short exposure challenge; assay type: in vivo, mice; details: aerosol, short-term exposure; Compound I 0.03 and 0.3 mg/ml, fluticasone 1 mg/ml; vs placebo, p<0.0001
Experimental: (§1) In order to study the modulation of airway inflammation by intraperitoneal injection of Compound I, mice were sensitized with 10 μg ovalbumin alumin-adsorbed (aluminject, perbio, Erembodegem, Belgium) injected intraperitonealy at days 0 and 7 and were subsequently exposed to OVA 1% or PBS aerosols for 30 minutes from day 21 to 24. Intraperitoneal injections were performed 30 min before OVA inhalations. The different injected formulations were: cremophor 10%-DMSO 10%-PBS 80%- Compound I30 mg/kg (suspension); cremophor 10%-DMSO 10%-PBS 80%- Compound I3.75 mg/kg (solution); HPβCD 200 mM Compound I 7.5 mg/kg (solution); HPβCD 200 mM. All results were compared to mice sensitized and exposed to PBS and OVA treated with PBS injected intraperitonealy. In order to study the modulation of airway inflammation by inhaled Compound I, mice were sensitized as described previously. Two protocols referred to as short exposure challenge and long-term exposure challenge were used. In the short exposure challenge, mice were exposed to aerosols of Compound I-complex at concentrations of 0.03 and 0.3 mg/ml of active compound in aqueous solution of from day 21 to 27 during 30 min in a Plexiglas exposure chamber (30×20×15 cm). Mice were exposed to OVA aerosols 30 minutes after the Compound I inhalation from day 23 to 27. In the so called long-term inhalation challenge, mice were exposed to aerosols of Compound Iat concentrations of 0.03 and 0.3 mg/ml complexed with HPβCD in an aqueous solution during 30 min five days odd weeks and to OVA aerosols 3 days odd weeks for 11 weeks. No inhalations were performed during even weeks.
The aerosol were produced by using an ultrasonic nebuliser SYSTAM (Systeme Assistance Medical, Le Ledat, France), the vibration frequency of which is 2.4 MHz with variable vibration intensity and ventilation levels. Vibration intensity was fixed in position 6 and the ventilation level was 25(ν1/2)1/min.
(§2) Twenty-four hours after the last allergen exposure, the bronchial hyper responsiveness was determined by measuring the Penh using a barometric plethysmograph as proposed by Hamelmann, E., et al., Am. J Respir. Crit. Care Med. 156 (1997) 766-775). The Penh was measured at baseline and 5 min after the inhalation of increasing doses (25, 50, 75 and 100 mM) of methacholine (Mch).
(§3) Immediately after the assessment of airway responsiveness, mice were sacrificed and 1 ml of PBS free of ionised calcium and magnesium but supplemented with 0.05 mM sodium EDTA was instilled 4 times via a tracheal cannula and recovered by gentle manual aspiration. The recovered bronchoalveolar lavage fluid (BAL) was centrifuged (1800 rpm for 10 min at 4° C.). […] A value from 0 to 3 per criteria was adjudged to each tissue section scored. […]

[2] = tested on: allergen-induced airway inflammation; test: Mouse model of asthma (OVA), inhalation, long-term exposure challenge (11 weeks); assay type: in vivo, mice; details: aerosol, long term allergen exposure (11 weeks)
Experimental: as §1, with “In the so called long-term inhalation challenge, mice were exposed to aerosols of Compound Iat concentrations of 0.03 and 0.3 mg/ml complexed with HPβCD in an aqueous solution during 30 min five days odd weeks and to OVA aerosols 3 days odd weeks for 11 weeks. No inhalations were performed during even weeks.” left out
as §2, with “J Respir. Crit. Care Med. 156 (1997) 766-775).” left out
as §3, with “aspiration.” for “aspiration. The recovered bronchoalveolar lavage fluid (BAL) was centrifuged (1800 rpm for 10 min at 4° C.).”

Human MMP-9 = Human MMP-9 (Homo sapiens, UniProt P14780); test: MMP enzymatic activity, modified fluorescence assay (DNP-substrate); assay type: biochemical; details: read-out: IC50 MMP-9
Chain of Human MMP-9 (P14780 107-707 limits assumed): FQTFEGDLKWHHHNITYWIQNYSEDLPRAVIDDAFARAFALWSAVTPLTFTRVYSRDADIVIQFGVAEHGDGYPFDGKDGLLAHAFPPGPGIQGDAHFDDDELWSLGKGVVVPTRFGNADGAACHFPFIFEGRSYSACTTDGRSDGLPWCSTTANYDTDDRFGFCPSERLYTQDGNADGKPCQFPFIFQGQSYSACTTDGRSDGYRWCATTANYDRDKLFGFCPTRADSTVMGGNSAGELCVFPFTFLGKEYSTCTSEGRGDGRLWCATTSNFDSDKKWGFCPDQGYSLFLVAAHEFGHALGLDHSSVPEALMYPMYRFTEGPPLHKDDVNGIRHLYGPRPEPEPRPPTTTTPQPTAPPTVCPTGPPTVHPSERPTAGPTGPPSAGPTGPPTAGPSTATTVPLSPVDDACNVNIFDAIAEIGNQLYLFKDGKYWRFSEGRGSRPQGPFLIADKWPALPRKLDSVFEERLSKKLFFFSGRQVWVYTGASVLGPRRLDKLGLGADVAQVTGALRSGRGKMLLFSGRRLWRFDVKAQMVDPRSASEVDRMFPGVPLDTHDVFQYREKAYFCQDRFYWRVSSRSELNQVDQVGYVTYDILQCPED
Experimental: (§4) IC50 values are measured by an in vitro assay for MMP enzymatic activity. Such an assay is described by Stack, M. S., and Gray, R. D., J. Biol. Chem. 264 (1989) 4277-4281. This assay is based on the determination of MMP enzymatic activity on a dinitrophenol substrate and fluorescence measurement of the substrate after cleaving by MMPs.
(§5) Inhibitors were tested in a modified fluorescence-assay as described by Stack, M. S., and Gray, R. D., J. Biol. Chem. 264 (1989) 4277-4281. Human MMP-1, MMP-2, MMP-3, MMP-9 and MMP-14 are commercially available (e.g. Calbiochem). The pro-enzymes were activated with 1 mM APMA (incubation for 30 min at 37° C.) immediately before testing. Activated enzyme is diluted to 100 ng/ml in incubation buffer (50 mM Tris, 100 mM NaCl, 10 mM CaCl2, pH 7.6). The compounds were dissolved in 100% DMSO. […] DNP-substrate (Bachem M1855, 255 μM) was dissolved in incubation buffer.
(§6) The test tube contains 970 μl incubation buffer, 10 μl inhibitor solution and 10 μl enzyme solution. The reaction was started by adding the 10 μl substrate solution.
(§7) Kinetics of activity were determined using excitation at 280 nm and emission at 346 nm measured on a FluoroMax™ (Spex Industries Inc., Edison, N.J., USA) over 120 sec. DMSO has been used as control instead of inhibitor solution.
(§8) IC50's are defined as the concentration of inhibitor that gives a signal that is 50% of the positive enzyme control.

Human MMP-14 = Human MMP-14 (Homo sapiens, UniProt P50281); test: as above; assay type: biochemical; details: read-out: IC50 MMP-14
Experimental: as §4, §5, §6, §7, §8

| IC50 (Human MMP-9) | IC50 (Human MMP-14) | Compound | eosinophilic inflammation in BAL [1] | peribronchial inflammation score ([2]; p<0.0001) | BAL eosinophilia ([2]; p<0.001) | tissue eosinophil infiltration score ([2]; p<0.01) |
| --- | --- | --- | --- | --- | --- | --- |
|  |  | CCC(=O)O[C@]1(C(=O)SCF)[C@H](C)C[C@H]2[C@@H]3C[C@H](F)C4=CC(=O)C=C[C@]4(C)[C@@]3(F)[C@@H](O)C[C@@]21C | significant decrease | significantly decreased | significantly decreased | decreased |
| 23 nM | 19 nM | CNC(=O)[C@H](Cc1ccccc1)NC(=O)[C@H](CC(C)C)[C@H](CSc1cccs1)C(=O)NO [Batimastat, reference compound] |  |  |  |  |
